The values below come from the Deep4Chem optical property database.

The data set in a line: solvent given as SMILES.

`COc1ccc2c3c(c4ccc(C(C)(C)C)cc4c2c1)=C(c1cc(OC)c(OC)c(OC)c1)C1=Nc2c(-c4cc(OC)c(OC)c(OC)c4)c4c5ccc(C(C)(C)C)cc5c5cc(OC)ccc5c4n2[B-](F)(F)[N+]=31` returned an emission maximum (in Cc1ccccc1) of 810 nm.
The compound `Cc1ccc(C2=C3C=CC(Sc4ccccc4)=[N+]3[B-](F)(F)n3c(Sc4ccccc4)ccc32)cc1` displayed an emission maximum (in C1CCOC1) of 599 nm.
Compound `c1ccc(-c2nc(-c3ccccc3)nc(-c3ccc(-c4ccc5c(c4)[Si](c4ccccc4)(c4ccccc4)c4cc(-c6ccc(-c7nc(-c8ccccc8)nc(-c8ccccc8)n7)cc6)ccc4N5c4ccccc4)cc3)n2)cc1` came in with an emission maximum (in c1cc(-c2cccc(-n3c4ccccc4c4ccccc43)c2)cc(-n2c3ccccc3c3ccccc32)c1) of 459 nm.
`Cc1c(C)n2c(COC(=O)c3ccccc3I)c(C)c(=O)n2c1=O` had an emission maximum (in CCO) of 461 nm.
`COc1ccc2oc(=N)c(C#N)cc2c1` came in with an emission maximum (in ClCCl) of 468 nm.
In turn, `C(=C\c1ccccc1/C=C/c1c2ccccc2cc2ccccc12)/c1ccncc1` had an emission maximum (in C1CCOC1) of 498 nm.
`Oc1cccc(-c2nc(-c3ccccc3)c(-c3ccccc3)[nH]2)c1` registered an emission maximum (in CO) of 390 nm.
As for `c1cncc(-c2ccc(-c3c4ccccc4c(-c4ccc(-c5cccnc5)cc4)c4cc(-c5cccnc5)ccc34)cc2)c1`, the emission maximum (in ClCCl) was determined as 434 nm.
`C[C@H](Nc1c2ccc(=[N+]3CCCCC3)cc-2oc2cc(N3CCCCC3)ccc12)C(=O)OC(C)(C)C`: the emission maximum (in ClCCl) is 544 nm.
On to `CN(C)c1ccc(/C=C/C=C/c2ccc(C#N)cc2)cc1`, for which the emission maximum by setting is: (in CC#N) 589 nm; (in CCCC#N) 579 nm; (in CCCCCC) 440 nm; (in CCOCC) 509 nm.
As to `COc1cc(OC)cc(C2=[O+][B-](F)(F)OC(c3cccs3)=C2)c1`, the emission maximum worked out at 434.88 nm (in CCCCCC), 502.25 nm (in Cc1ccccc1) and 567 nm (in ClCCl).
Turning to `C(=C\c1nc(/C=C/c2ccc(-n3c4ccccc4c4ccccc43)cc2)nc(/C=C/c2ccc(-n3c4ccccc4c4ccccc43)cc2)n1)/c1ccc(-n2c3ccccc3c3ccccc32)cc1`, the emission maximum runs as follows: (in C1CCOC1) 500 nm; (in CC#N) 574 nm; (in Cc1ccccc1) 453 nm; (in ClCCl) 526 nm.
For `CCCCn1c2ccc(-c3ccc4ccccc4c3)cc2c2ccc3c4cc(-c5ccc6ccccc6c5)ccc4n(CCCC)c3c21`, for the setting “in ClC(Cl)Cl”, the emission maximum amounted to 418 nm.
Regarding `[O-]c1ccccc1/C=N/c1ccccc1/N=C/c1ccccc1[O-]`, where the note is “in C1CCOC1”, the emission maximum is on record as 490 nm.
As for `CCN(CC)c1ccc2cc(/C=C(\C#N)c3nc4ccccc4s3)c(=O)oc2c1`, the emission maximum reads like this: (in C1COCCO1) 570 nm; (in CC#N) 596 nm; (in CCO) 594 nm; (in CCOC(C)=O) 576 nm; (in CN(C)C=O) 605 nm; (in CO) 598 nm. Besides, the emission maximum runs as follows: (in CS(C)=O) 613 nm; (in Cc1ccccc1) 567 nm; (in ClCCl) 580 nm.
For the compound `COc1ccc(N(c2ccc(C=C(c3ccccc3)c3ccccc3)cc2)c2ccc(OC)cc2)cc1`, the emission maximum (in Cc1ccccc1) was determined as 489 nm.
For the setting “in CO”, `O=C(O)c1ccc(-c2cnc(-c3ccc(N(c4ccccc4)c4ccccc4)cc3)s2)cc1` gave an emission maximum of 496 nm.
On to `N#Cc1c[nH]c2ccccc12`, for which the emission maximum reads like this: (in C1CCOC1) 314 nm; (in C1COCCO1) 305 nm; (in CC#N) 313 nm; (in CC(C)O) 315 nm; (in CCO) 314 nm; (in CO) 314 nm. The compound also came in with an emission maximum (in CS(C)=O) of 316 nm, an emission maximum (in O) of 320 nm and an emission maximum (in OCC(F)(F)F) of 314 nm.
The compound `CN(C)c1ccc2ccc3oc(=O)c(-c4ccccc4)nc3c2c1` came in with an emission maximum (in c1ccccc1) of 608 nm.
`BrC1=CN2C[n+]3cc(Br)cc(Br)c3N=C2C(Br)=C1` gave an emission maximum (in CS(C)=O) of 494 nm.
